Assay results from ChEMBL document CHEMBL1147362, “Cytotoxicity of Hymenocallis expansa alkaloids” (1993).
≈ marks a conversion by molar mass, not a printed value.

How the values were obtained:
Assay type in all cases: functional
[1] = Cytotoxicity against human KBV1 cells after 3 days by sulforhodamine B assay; details: KB-V1, 72 h, read-out: ED50 (the source's name)
SK-MEL-2 = assay: Cytotoxicity against human SK-MEL-2 cells after 3 days by sulforhodamine B assay; details: SK-MEL-2, 72 h, read-out: ED50 (the source's name)
[2] = Cytotoxicity against human BC1 cells after 3 days by sulforhodamine B assay; details: BC1, 72 h, read-out: ED50 (the source's name)
A-431 = assay: Cytotoxicity against human A431 cells after 3 days by sulforhodamine B assay; details: A-431, 72 h, read-out: ED50 (the source's name)
HT = assay: Cytotoxicity against human HT cells after 3 days by sulforhodamine B assay; details: 72 h, read-out: ED50 (the source's name)
LNCaP = assay: Cytotoxicity against human LNCAP cells after 3 days by sulforhodamine B assay; details: 72 h, read-out: ED50 (the source's name)
KB = assay: Cytotoxicity against human KB cells after 3 days by sulforhodamine B assay; details: 72 h, read-out: ED50 (the source's name)
ZR-75-1 = assay: Cytotoxicity against human ZR-75-1 cells after 3 days by sulforhodamine B assay; details: ZR-75-1, 72 h, read-out: ED50 (the source's name)
P388 = assay: Cytotoxicity against mouse P388 cells after 3 days by sulforhodamine B assay; details: P388, 72 h, read-out: ED50 (the source's name)
Col2 = assay: Cytotoxicity against human Col2 cells after 3 days by sulforhodamine B assay; details: Col2, 72 h, read-out: ED50 (the source's name)
Lu1 = assay: Cytotoxicity against human Lu1 cells after 3 days by sulforhodamine B assay; details: Lu1, 72 h, read-out: ED50 (the source's name)

SMILES	EC50 [1] [µg/mL]	EC50 (SK-MEL-2) [µg/mL]	EC50 [2] [µg/mL]	EC50 (A-431) [µg/mL]	EC50 (HT) [µg/mL]	EC50 (LNCaP) [µg/mL]	EC50 (KB) [µg/mL]	EC50 (ZR-75-1) [µg/mL]	EC50 (P388) [µg/mL]	EC50 (Col2) [µg/mL]	EC50 (Lu1) [µg/mL]
CN1CCC2=C[C@H](O)[C@H]3OC(=O)c4cc5c(cc4[C@H]3[C@@H]21)OCO5	> 20	> 20	> 20	6.3 (≈ 20 µM)	4.7 (≈ 14.9 µM)	1.8 (≈ 5.71 µM)	> 20	7.3 (≈ 23.2 µM)	4 (≈ 12.7 µM)	7.8 (≈ 24.7 µM)	5.2 (≈ 16.5 µM)
CO[C@@H]1C=C[C@@]23c4cc5c(cc4[C@H](O)N(C[C@@H]2O)[C@H]3C1)OCO5	8.4 (≈ 26.5 µM)	1.9 (≈ 5.99 µM)	> 20	3 (≈ 9.45 µM)	1.6 (≈ 5.04 µM)	0.7 (≈ 2.21 µM)	3.6 (≈ 11.3 µM)	2.6 (≈ 8.19 µM)	0.4 (≈ 1.26 µM)	6 (≈ 18.9 µM)	2.1 (≈ 6.62 µM)
CO[C@@H]1C=C[C@@]23c4cc5c(cc4CO[C@]2(O)CN(C)[C@H]3C1)OCO5 [TAZETTINE]	> 20	12.9 (≈ 38.9 µM)	> 20	11.1 (≈ 33.5 µM)	11.8 (≈ 35.6 µM)	5.9 (≈ 17.8 µM)	7.3 (≈ 22 µM)	6.9 (≈ 20.8 µM)	1 (≈ 3.02 µM)	5 (≈ 15.1 µM)	11.1 (≈ 33.5 µM)
